Results taken from US4032625A, “Bone-seeking technetium-99m complex” (priority 1975, dated 1977).
Read-outs that look alike come from different tables or passages of the source.

Conditions: 2 Hrs

Compound: [85Sr] [^85 Sr]
- % Dose in Whole Organ: Blood (0.01 mg/kg AEDP): 2.99 % Dose
- % Dose in Whole Organ: Kidneys (0.01 mg/kg AEDP): 0.329 % Dose
- % Dose in Whole Organ: Liver (0.01 mg/kg AEDP): 0.568 % Dose
- % Dose in Whole Organ: Marrow (0.01 mg/kg AEDP): 0.465 % Dose
- % Dose in Whole Organ: Muscle (0.01 mg/kg AEDP): 4.98 % Dose
- % Dose in Whole Organ: W. Femur (0.01 mg/kg AEDP): 3.22 % Dose
- % Dose in Whole Organ: W. Tibia (0.01 mg/kg AEDP): 2.71 % Dose
- % Dose/1% Body weight: Blood (0.01 mg/kg AEDP): 0.427 % Dose/1% Body weight
- % Dose/1% Body weight: Bone Ave (0.01 mg/kg AEDP): 10.33 % Dose/1% Body weight
- % Dose/1% Body weight: Femur (0.01 mg/kg AEDP): 10.38 % Dose/1% Body weight
- % Dose/1% Body weight: Kidneys (0.01 mg/kg AEDP): 0.567 % Dose/1% Body weight
- % Dose/1% Body weight: Liver (0.01 mg/kg AEDP): 0.177 % Dose/1% Body weight
- % Dose/1% Body weight: Marrow (0.01 mg/kg AEDP): 0.211 % Dose/1% Body weight
- % Dose/1% Body weight: Muscle (0.01 mg/kg AEDP): 0.116 % Dose/1% Body weight
- % Dose/1% Body weight: Pelvis (0.01 mg/kg AEDP): 10.66 % Dose/1% Body weight
- % Dose/1% Body weight: Spine (0.01 mg/kg AEDP): 8.98 % Dose/1% Body weight
- % Dose/1% Body weight: Tibia (0.01 mg/kg AEDP): 11.28 % Dose/1% Body weight
- % Dose: Urine (0.01 mg/kg AEDP): 20.97 % Dose
- % Dose in Whole Organ: Blood (0.01 mg/kg EHDP): 3.19 % Dose
- % Dose in Whole Organ: Kidneys (0.01 mg/kg EHDP): 0.43 % Dose
- % Dose in Whole Organ: Liver (0.01 mg/kg EHDP): 0.74 % Dose
- % Dose in Whole Organ: Marrow (0.01 mg/kg EHDP): 0.42 % Dose
- % Dose in Whole Organ: One Femur (0.01 mg/kg EHDP): 2.83 % Dose
- % Dose/1%-body weight: Blood (0.01 mg/kg EHDP): 0.456 % Dose/1%-body weight
- % Dose/1%-body weight: Femur (0.01 mg/kg EHDP): 9.70 % Dose/1%-body weight
- % Dose/1%-body weight: Kidney (0.01 mg/kg EHDP): 0.655 % Dose/1%-body weight
- % Dose/1%-body weight: Liver (0.01 mg/kg EHDP): 0.206 % Dose/1%-body weight
- % Dose/1%-body weight: Marrow (0.01 mg/kg EHDP): 0.192 % Dose/1%-body weight
- % Dose: Urine (0.01 mg/kg EHDP): 23.66 % Dose
- % Dose in Whole Organ: Blood (0.01 mg/kg MDP): 3.27 % Dose
- % Dose in Whole Organ: Kidneys (0.01 mg/kg MDP): 0.34 % Dose
- % Dose in Whole Organ: Liver (0.01 mg/kg MDP): 0.65 % Dose
- % Dose in Whole Organ: Marrow (0.01 mg/kg MDP): 0.53 % Dose
- % Dose in Whole Organ: Muscle (0.01 mg/kg MDP): 5.69 % Dose
- % Dose in Whole Organ: One Femur (0.01 mg/kg MDP): 3.46 % Dose
- % Dose/1% Body weight: Blood (0.01 mg/kg MDP): 0.47 % Dose/1% body weight
- % Dose/1% Body weight: Femur (0.01 mg/kg MDP): 13.93 % Dose/1% body weight
- % Dose/1% Body weight: Kidneys (0.01 mg/kg MDP): 0.54 % Dose/1% body weight
- % Dose/1% Body weight: Liver (0.01 mg/kg MDP): 0.16 % Dose/1% body weight
- % Dose/1% Body weight: Marrow (0.01 mg/kg MDP): 0.24 % Dose/1% body weight
- % Dose/1% Body weight: Muscle (0.01 mg/kg MDP): 0.13 % Dose/1% body weight
- % Dose/1% Body weight: Pelvis (0.01 mg/kg MDP): 13.55 % Dose/1% body weight
- % Dose/1% Body weight: Spine (0.01 mg/kg MDP): 12.78 % Dose/1% body weight
- % Dose/1% Body weight: Tibia (0.01 mg/kg MDP): 7.14 % Dose/1% body weight
- % Dose/1% body weight: Ave Bone (0.01 mg/kg MDP): 11.85 % Dose/1% body weight
- % Dose: Urine (0.01 mg/kg MDP): 10.3 % Dose
- % Dose in Whole Organ: Blood (0.05 mg/kg AEDP): 2.50 % Dose
- % Dose in Whole Organ: Kidneys (0.05 mg/kg AEDP): 0.353 % Dose
- % Dose in Whole Organ: Liver (0.05 mg/kg AEDP): 0.613 % Dose
- % Dose in Whole Organ: Marrow (0.05 mg/kg AEDP): 0.486 % Dose
- % Dose in Whole Organ: Muscle (0.05 mg/kg AEDP): 5.09 % Dose
- % Dose in Whole Organ: W. Femur (0.05 mg/kg AEDP): 3.51 % Dose
- % Dose in Whole Organ: W. Tibia (0.05 mg/kg AEDP): 3.15 % Dose
- % Dose/1% Body weight: Blood (0.05 mg/kg AEDP): 0.357 % Dose/1% Body weight
- % Dose/1% Body weight: Bone Ave (0.05 mg/kg AEDP): 12.34 % Dose/1% Body weight
- % Dose/1% Body weight: Femur (0.05 mg/kg AEDP): 12.62 % Dose/1% Body weight
- % Dose/1% Body weight: Kidneys (0.05 mg/kg AEDP): 0.551 % Dose/1% Body weight
- % Dose/1% Body weight: Liver (0.05 mg/kg AEDP): 0.134 % Dose/1% Body weight
- % Dose/1% Body weight: Marrow (0.05 mg/kg AEDP): 0.221 % Dose/1% Body weight
- % Dose/1% Body weight: Muscle (0.05 mg/kg AEDP): 0.118 % Dose/1% Body weight
- % Dose/1% Body weight: Pelvis (0.05 mg/kg AEDP): 11.44 % Dose/1% Body weight
- % Dose/1% Body weight: Spine (0.05 mg/kg AEDP): 11.60 % Dose/1% Body weight
- % Dose/1% Body weight: Tibia (0.05 mg/kg AEDP): 13.69 % Dose/1% Body weight
- % Dose: Urine (0.05 mg/kg AEDP): 11.95 % Dose
- % Dose in Whole Organ: Blood (0.05 mg/kg EHDP): 3.39 % Dose
- % Dose in Whole Organ: Kidneys (0.05 mg/kg EHDP): 0.46 % Dose
- % Dose in Whole Organ: Liver (0.05 mg/kg EHDP): 0.77 % Dose
- % Dose in Whole Organ: Marrow (0.05 mg/kg EHDP): 0.61 % Dose
- % Dose in Whole Organ: One Femur (0.05 mg/kg EHDP): 3.33 % Dose
- % Dose/1%-body weight: Blood (0.05 mg/kg EHDP): 0.485 % Dose/1%-body weight
- % Dose/1%-body weight: Femur (0.05 mg/kg EHDP): 11.51 % Dose/1%-body weight
- % Dose/1%-body weight: Kidney (0.05 mg/kg EHDP): 0.616 % Dose/1%-body weight
- % Dose/1%-body weight: Liver (0.05 mg/kg EHDP): 0.210 % Dose/1%-body weight
- % Dose/1%-body weight: Marrow (0.05 mg/kg EHDP): 0.291 % Dose/1%-body weight
- % Dose: Urine (0.05 mg/kg EHDP): 13.4 % Dose
- % Dose in Whole Organ: Blood (0.05 mg/kg MDP): 3.66 % Dose
- % Dose in Whole Organ: Kidneys (0.05 mg/kg MDP): 0.46 % Dose
- % Dose in Whole Organ: Liver (0.05 mg/kg MDP): 0.71 % Dose
- % Dose in Whole Organ: Marrow (0.05 mg/kg MDP): 0.53 % Dose
- % Dose in Whole Organ: Muscle (0.05 mg/kg MDP): 5.89 % Dose
- % Dose in Whole Organ: One Femur (0.05 mg/kg MDP): 2.53 % Dose
- % Dose/1% Body weight: Blood (0.05 mg/kg MDP): 0.52 % Dose/1% body weight
- % Dose/1% Body weight: Femur (0.05 mg/kg MDP): 9.10 % Dose/1% body weight
- % Dose/1% Body weight: Kidneys (0.05 mg/kg MDP): 0.9 % Dose/1% body weight
- % Dose/1% Body weight: Liver (0.05 mg/kg MDP): 0.22 % Dose/1% body weight
- % Dose/1% Body weight: Marrow (0.05 mg/kg MDP): 0.24 % Dose/1% body weight
- % Dose/1% Body weight: Muscle (0.05 mg/kg MDP): 0.14 % Dose/1% body weight
- % Dose/1% Body weight: Pelvis (0.05 mg/kg MDP): 8.33 % Dose/1% body weight
- % Dose/1% Body weight: Spine (0.05 mg/kg MDP): 6.75 % Dose/1% body weight
- % Dose/1% Body weight: Tibia (0.05 mg/kg MDP): 4.94 % Dose/1% body weight
- % Dose/1% body weight: Ave Bone (0.05 mg/kg MDP): 7.29 % Dose/1% body weight
- % Dose: Urine (0.05 mg/kg MDP): 23.16 % Dose
